Results from patent US20230212163A1, “2-(HET)ARYL-SUBSTITUTED CONDENSED HETEROCYCLIC DERIVATIVES AS PEST CONTROL AGENTS” (Bayer Aktiengesellschaft, priority 2020, published 2023).

Legend:
Assay type in all cases: in vivo
Diabrotica balteata = Diabrotica balteata spray test; settings: Diabrotica balteata, 168 h, application rate 100 g/ha, after 7 days
Method: [table] To produce a suitable active compound formulation, 1 part by weight of active compound is dissolved using the stated parts by weight of solvent and made up with water containing an emulsifier concentration of 1000 ppm until the desired concentration is attained. To produce further test concentrations, the formulation is diluted with emulsifier-containing water. Pre-swollen wheat grains (Triticum aestivum) are incubated in a multiwell plate filled with agar and a little water for one day (5 seed grains per cavity). The germinated wheat grains are sprayed with an active compound formulation of the desired concentration. Subsequently, each cavity is infected with 10-20 beetle larvae of Diabrotica balteata. After 7 days, the efficacy in % is determined. 100% means that all wheat plants have grown as in the untreated, uninfected control; 0% means that no wheat plant has grown.

Meloidogyne incognita = Meloidogyne incognita test; settings: application rate 20 ppm, after 14 days
Method: [table] To produce an appropriate active ingredient formulation, 1 part by weight of active ingredient is mixed with the stated amount of solvent and the concentrate is diluted to the desired concentration with water. Vessels are filled with sand, active ingredient solution, an egg/larvae suspension of the southern root-knot nematode (Meloidogyne incognita) and lettuce seeds. The lettuce seeds germinate and the plants develop. The galls develop on the roots. After 14 days, the nematicidal efficacy in % is determined by the formation of galls. 100% means that no galls were found; 0% means that the number of galls on the treated plants corresponds to the untreated control.

Myzus persicae [1] = assay: Myzus persicae oral test; settings: 120 h, application rate 4 ppm, after 5 days, read-out: efficacy
Method: [table] To produce a suitable active compound formulation, 1 part by weight of active compound is dissolved using the specified parts by weight of solvent and made up with water until the desired concentration is attained. 50 μl of the active compound formulation are transferred into microtitre plates and made up to a final volume of 200 μl with 150 μl of IPL41 insect medium (33%+15% sugar). Subsequently, the plates are sealed with parafilm, which a mixed population of green peach aphids (Myzus persicae) within a second microtitre plate is able to puncture and imbibe the solution through. After 5 days, the efficacy in % is determined. 100% means that all the aphids have been killed; 0% means that no aphids have been killed.

Myzus persicae [2] = assay: Myzus persicae spray test; settings: application rate 100 g/ha, after 5 days
Method: (§1) [table] To produce a suitable active compound formulation, 1 part by weight of active compound is dissolved using the stated parts by weight of solvent and made up with water containing an emulsifier concentration of 1000 ppm until the desired concentration is attained. To produce further test concentrations, the formulation is diluted with emulsifier-containing water. Discs of Chinese cabbage leaves (Brassica pekinensis) infested by all stages of the green peach aphid (Myzus persicae) are sprayed with an active compound formulation of the desired concentration. After 5 days, the efficacy in % is determined. 100% means that all the aphids have been killed; 0% means that no aphids have been killed.

Phaedon cochleariae = Phaedon cochleariae spray test; settings: application rate 100 g/ha, after 7 days
Method: as §1, with “pekinensis)” for “pekinensis) infested by all stages of the green peach aphid (Myzus persicae)”, “concentration and, after drying, populated with larvae of the mustard beetle (Phaedon cochleariae).” for “concentration.”, “7” for “5”, “beetle larvae” for “aphids”

Spodoptera frugiperda = Spodoptera frugiperda spray test (maize leaf discs); settings: Spodoptera frugiperda, foliar, 168 h, application rate 100 g/ha, after 7 days
Method: [table] To produce a suitable active compound formulation, 1 part by weight of active compound is dissolved using the stated parts by weight of solvent and made up with water containing an emulsifier concentration of 1000 ppm until the desired concentration is attained. To produce further test concentrations, the formulation is diluted with emulsifier-containing water. Leaf discs of maize (Zea mays) are sprayed with an active compound formulation of the desired concentration and, after drying, populated with caterpillars of the fall armyworm (Spodoptera frugiperda). After 7 days, the efficacy in % is determined. 100% means that all the caterpillars have been killed; 0% means that no caterpillar has been killed.

Nezara viridula = Nezara viridula spray test; settings: Nezara viridula, 96 h, application rate 500 g/ha, after 4 days
Method: as §1, with “Barley plants (Hordeum vulgare)” for “Discs of Chinese cabbage leaves (Brassica pekinensis) infested by all stages of the green peach aphid (Myzus persicae)”, “concentration and are infected with larvae of the Southern green shield bug (Nezara viridula).” for “concentration.”, “4” for “5”, “all of” for “all”, “shield bugs” for “aphids”, “none of the shield bugs” for “no aphids”

| Compound | pest or weed control at 100 g/ha (Diabrotica balteata) [%] | nematicidal efficacy (formation of galls) (Meloidogyne incognita) [%] | pest or weed control at 4 ppm (Myzus persicae [1]) [%] | activity (Myzus persicae [2]) [%] | activity (Phaedon cochleariae) [%] | pest or weed control at 100 g/ha (Spodoptera frugiperda) [%] | pest or weed control at 500 g/ha (Nezara viridula) [%] |
| --- | --- | --- | --- | --- | --- | --- | --- |
| CCS(=O)(=O)c1ccc(-n2ncn(-c3ccc(C4(C#N)CC4)cc3)c2=O)nc1-c1nc2cc(S(=O)(=O)C(F)(F)Cl)ccc2o1 [Example I-18] | 100 | 100 |  |  |  |  |  |
| CCS(=O)(=O)c1ccc(-n2ncn(C3CC3)c2=O)nc1-c1nc2cc(S(=O)(=O)C(F)(F)F)ccc2o1 [Example I-03] |  |  | 100 | 100 | 100 | 100 |  |
| CCS(=O)(=O)c1ccc(-n2ncn(-c3ccc(OC)nc3)c2=O)nc1-c1nc2cc(S(=O)(=O)C(F)(F)F)ccc2o1 [Example I-43] | 80 | 90 |  |  |  | 83 | 90 |
